Conditions: sheep, in vivo, 7 days
Text: In another embodiment, the present disclosure provides a composition that achieves both immediate and extended release of an active pharmaceutical ingredient (API) upon administration to a subject, the composition comprising chitosan particles and API, the release occurring through at least one of diffusion of API from the particles and breakdown of the particles to release entrapped API. In additional embodiments, the present disclosure provides a composition that achieves both immediate and extended release of an API which is characterized by any one or more of the following exemplary features: the chitosan particles comprise crosslinked chitosan; the API is an NSAID; the API is diclofenac which optionally may be in whole or in part in crystalline form; the immediate release occurs over a period of 12 hours from the administration, and releases from 5 to 70% of API from the particles; the extended release occurs over a period of 0.5 to 7 days from administration, and releases 5 to 70% of the API from the particles; the particles are taken up by the synovium after administration to the subject. […] Accordingly, the incorporation of API into a crosslinked chitosan particle as disclosed herein may provide an extended release of API into the synovial fluid.

synovial fluid concentration of diclofenac: about 0.05 mg/mL
SMILES: O=C(O)Cc1ccccc1Nc1c(Cl)cccc1Cl [diclofenac, 2-(2-(2,6-dichlorophenylamino)phenyl)acetic acid]

Reference: patent US20180000737A1, “INJECTABLE AGGREGATES FOR JOINT AND SOFT TISSUE DISTRESS” (VISGO THERAPEUTICS, INC., priority 2015, published 2018)
